Results reported in patent publication US20120321594A1, “METHODS OF CONTROLLING AXON OR DENDRITE DEVELOPMENT OF NEURONAL CELLS” (NEW YORK UNIVERSITY, priority 2011, published 2012).
Like-named read-outs stand apart in the source and are kept apart here.

Columns and labels:
[1] = test system: MAP2-positive dendrites of Xenopus spinal cord; assay: Whole-mount MAP2 immunohistochemistry of spinal cords (dendrite identity in vivo); parameters: species or system Xenopus laevis; conditions: for MAP2-IR in the MO-injected side of spinal cords: stage 42, compared to the uninjected side
xCav2.3α1E = assay: Whole-mount immunostaining of xCav2.3α1E expression in spinal cords; format: in vivo, Xenopus laevis
xSema3A = assay: Whole-mount immunostaining of xSema3A expression in spinal cords; conditions: stage 30-32 spinal cords
cultured xSCINs = assay: Neurite identity (tau-1 / MAP2 immunocytochemistry) of cultured xSCINs; format: cell-based, Xenopus laevis
Procedure: Capped messenger RNAs encoding NP1-0111, hSema3A, mCav2.3α1E, and green fluorescent protein (GFP) were synthesized with mMESSAGE mMACHINE (Ambion Inc.) and purified on NucAway™ Spin Columns (Ambion Inc.) as described by the manufacturer. […] Each blastomere was injected with 4 to 8 nl of 0.5 μg·ul^−1 NPI-0111, 0.5 μg·μl^−1 hSema3A, or 0.5 μg·μl^−mCav2.3α1E mRNA and 0.25 μg·μl^−1 GFP mRNA as an expression indicator. Primary Xenopus spinal neurons derived from developmental stage 26 embryos were cultured at 23° C.-25° C. for 16-20 hours and used for growth cone electrophysiology (FIGS. 2A-2E; FIGS. 3A-3C) and immunocytochemistry (FIGS. 4A and 4B). To examine the neurite identity and expression of functional AMPA receptor channels (FIGS. 5A-5C), cells were plated on cover glasses that had been coated for four to six hours each with poly-L-lysine (100 μg·ml^−1) and laminin (80 μg·ml^−1) and incubated for three to four hours at 23° C.-25° C. prior to use.
Sema3A (2 U·ml^−1) and netrin-1 (5 ng·ml^−1) were prepared as described (Nishiyama et al., “Membrane Potential Shifts Caused by Diffusible Guidance Signals Direct Growth-Cone Turning,” Nat. Neurosci. 11:762-771 (2008); Togashi et al., “Cyclic GMP-Gated CNG Channels Function in Sema3A-Induced Growth Cone Repulsion,” Neuron 58:694-707 (2008); Goshima, “A Novel Action of Collapsin: Collapsin-1 Increases Antero- and Retrograde Axoplasmic Transport Independently of Growth Cone Collapse,” J. Neurobiol. 33:316-328 (1997); Hong et al., “Calcium Signalling in the Guidance of Nerve Growth by Netrin-1,” Nature 403:93-98 (2000); Nishiyama et al., “Cyclic AMP/GMP-Dependent Modulation of Ca^2+ Channels Sets the Polarity of Nerve Growth-Cone Turning,” Nature 423:990-995 (2003); Hong et al., “A Ligand-Gated Association Between Cytoplasmic Domains of UNC5 and DCC Family Receptors Converts Netrin-Induced Growth Cone Attraction to Repulsion,” Cell 97:927-941 (1999), which are hereby incorporated by reference in their entirety). To test the conversion of the identities of individual neurites and for growth cone electrophysiology, 2,000 U/ml Sema3A (in micropipettes) was applied as a gradient. The biological activity of Sema3A (U·ml^−1) was evaluated using a collapse assay of chick DRG neurons (Goshima, “A Novel Action of Collapsin: Collapsin-1 Increases Antero- and Retrograde Axoplasmic Transport Independently of Growth Cone Collapse,” J. Neurobiol. 33:316-328 (1997), which is hereby incorporated by reference in its entirety). All pharmacological agents were bath-applied 30 min before experiments were performed unless otherwise indicated. Agonist and antagonists were purchased from Calbiochem, Peptide Institute, Sigma, and Tocris.

[2] = test system: MAP2 to tau-1 ratio in Xenopus spinal cords; parameters: species or system Xenopus laevis; conditions: in vivo
Cav2.3 channels = assay: Whole-cell Ca^2+ currents at growth cones of cultured xSCINs, isolated Cav2.3 (R-type) currents; format: cell-based, Xenopus laevis
Procedure: To test the conversion of the identities of individual neurites and for growth cone electrophysiology, 2,000 U/ml Sema3A (in micropipettes) was applied as a gradient. […] All pharmacological agents were bath-applied 30 min before experiments were performed unless otherwise indicated.

[3] = test system: tau-1-positive axons of Xenopus spinal cord; parameters: species or system Xenopus laevis; conditions: in vivo
[4] = test system: putative CINs of Xenopus spinal cord; assay: Imaging of individual spinal neurons (Texas Red dextran) in MO-injected spinal cords; format: in vivo, Xenopus laevis; conditions: stage 42 tadpole spinal cords
Cav2.3α1E = Cav2.3α1E immunoreactivity in cultured xSCINs; format: cell-based, Xenopus laevis; conditions: pre-treatment with the agent
Procedure: Sema3A and +CHX, respectively, indicate treatment with Sema3A (2 U·ml−1) for 10 min or with Sema3A (2 U·ml−1) for 10 min after a one-minute pre-administration of cycloheximide (25 μM). FIG. 16B is a graph showing a summary of Cav2.3α1E immunoreactivity (IR, AU) in each experimental condition. […] FIGS. 16D and 16E are immunofluorescence images (FIG. 16D) and summaries (FIG. 16E) of Cav2.3α1E IR in Xenopus spinal cords either without (Control) or with (+CHX) local injection of cycloheximide (2.5 mM). Cav2.3α1E IR was normalized against that of control animals. For uninjected controls, the right sides of spinal cords were normalized against the left sides. Scale bars, 20 μm; data are mean±s.e.m; (n) =number of cultures (150 to 200 neurons, FIG. 16B) spinal cords examined (FIG. 16E). Significant difference from the control is indicated (**p<0.01). […]

[5] = injected into hindbrain and spinal cord of stage 30-32 tailbuds
[6] = xSema3A-A-MO in one side of spinal cords
[7] = xSCINs cultured on laminin, treated for three hours

For Nc1nc2c(nc(Br)n2[C@@H]2O[C@@H]3COP(=O)(O)O[C@H]3[C@H]2O)c(=O)[nH]1 [8-Br-cGMP], the “MAP2-IR / dendrite formation after local administration” value (shortened to “MAP2-IR / dendrite formation”) [1, 5] was “enhanced”, the “rescue of dendrites in the absence of xCav2.3” value ([1]; local administration, xCav2.3α1E-A-MO (FIG. 15N)) was “failed to rescue dendrites” and the “expression of xCav2.3α1E after local administration” value (xCav2.3α1E; [5]) was “enhanced”. For the same molecule, the “expression of xCav2.3α1E after local administration in the absence of Sema3A” value (“expression of xCav2.3α1E … of Sema3A” below) (xCav2.3α1E; [6]) was “induced the expression of xCav2”.

With COCCOC(=O)C1=C(C)NC(C)=C(C(=O)OC(C)C)C1c1cccc([N+](=O)[O-])c1 (centres unmarked) [nimodipine] the “MAP2-IR / dendrite formation” value ([1]; in vivo) was “no significant effect”.

“xSema3A-A-MO: antisense morpholino oligonucleotide against xSema3A mRNA (SEQ ID NO: 8) (antisense ATGCAATCCAGGTCAGAGAGCCCAT; all phosphorodiamidate morpholino (PMO))” was tested, and the “MAP2-IR in the MO-injected side of spinal cords” value [1] was “significantly reduced”, the “expression of xCav2.3α1E in the MO-injected side” value (xCav2.3α1E; stage 34) was “reduced markedly” and the “expression of xSema3A in the MO-injected side” value (xSema3A) was “reduced significantly”.

For “Netrin-1: another secreted factor that effects axon initiation in C. elegans”, the MAP2-IR (cultured xSCINs; [7]) was “no significant effect” and the “tau-1 immunoreactivity (IR)” value (cultured xSCINs; [7]) was “no significant effect”.

With “SNX-482 (GVDKAGCRYMFGGCSVNDDCCPRLGCHSLFSYCAWDLTFSD)” the “Sema3A-induced conversion of tau-1-positive axons to MAP2-positive dendrites in the presence of the agent” value (“Sema3A-induced conversion” below) (cultured xSCINs) was “prevented”, the “MAP2-positive dendrites after local administration, 45 μM” value ([1]; in vivo) was “eliminated almost all dendrites” and the “MAP2-positive dendrites after local administration, lower doses” value ([1]; in vivo) was “significant reductions”. The “ratio of MAP2 to tau-1 in total protein extracted from spinal cords” value [2] was “significantly lower”, the “Sema3A-induced Cav2.3 currents in the presence of the agent” value (“Sema3A-induced Cav2.3 currents” for short) (Cav2.3 channels) was “abolished” and the “tau-1-IR after local administration into the spinal cord” value [3] was “significant increase”.

“xCav2.3α1E-A-MO: antisense morpholino oligonucleotide against xCav2.3α1E mRNA (SEQ ID NO: 7) (antisense CTATGTGATATGATTATTTATGACC; all phosphorodiamidate morpholino (PMO))” was tested, and the “MAP2-IR in the MO-injected side of spinal cords” value [1] was “significantly reduced”, the “neurites of individual putative CINs in the MO-treated side” value [4] was “multiple axon-like neurites” and the “tau-1-IR in the MO-injected side of the spinal cords” value [3] was “significant increase”.

“SNP-1: the soluble Npn-1 ectodomain peptide that sequesters Sema3A” was tested, and the “Sema3A-induced conversion” value (cultured xSCINs; agent bath-applied with Sema3A) was “prevented”.

C[C@@H]1C[C@@H]([C@H](O)CC2CC(=O)NC(=O)C2)C(=O)[C@@H](C)C1 [cycloheximide] was tested, and the “expression of xCav2.3α1E after local administration” value (xCav2.3α1E; in vivo) was “eliminated”, the “Rp-8-pCPT-cGMPS-induced Cav2.3 currents in the presence of the agent” value (Cav2.3 channels) was “eliminated” and the “Sema3A-induced expression of Cav2.3 in vitro after pre-treatment” value (Cav2.3α1E) was “eliminated”.

In the case of Nc1nc2c(nc(Sc3ccc(Cl)cc3)n2[C@@H]2O[C@@H]3CO[P@@](=O)(S)O[C@H]3[C@H]2O)c(=O)[nH]1 [Rp-8-pCPT-cGMPS], the “MAP2-IR / dendrite formation” value ([1]; in vivo) is reported as “drastically reduced”, the “appearance of dendrites in the presence of the xCav2.3” value ([1]; in vivo) is reported as “prevented the appearance of dendrites” and the “expression of xCav2.3α1E after local administration” value (xCav2.3α1E; in vivo) is reported as “significant increase”. For the same molecule, the “expression of xCav2.3α1E … of Sema3A” value (xCav2.3α1E; in vivo) was “induced the expression of xCav2”, the “Cav2.3 currents induced by a gradient of the agent alone” value (Cav2.3 channels) was “induced Cav2.3 currents” and the “Sema3A-induced Cav2.3 currents” value (Cav2.3 channels) was “pre-empted”.

O=c1onc2cnc3ccccc3n12 [ODQ, 1H-[1,2,4]oxadiazolo[4,3-a]quinoxalin-1-one] was tested, and the “MAP2-IR / dendrite formation” value [1, 5] was “abolished”, the “appearance of dendrites in the presence of the xCav2.3” value ([1]; local administration, A-MO in one side of spinal cords (FIGS. 15L, 15M)) was “prevented the appearance of dendrites” and the “expression of xCav2.3α1E after local administration” value (xCav2.3α1E; [5]) was “abolished”. For the same molecule, the “expression of xCav2.3α1E … of Sema3A” value (xCav2.3α1E; [6]) was “significant reduction”, the “Rp-8-pCPT-cGMPS-induced Cav2.3 currents in the presence of the agent” value (Cav2.3 channels; agent as pretreatment / in the bath) was “not affected” and the “Sema3A-induced Cav2.3 currents” value (Cav2.3 channels; gradient of Sema3A on xSCIN growth cones, agent added) was “prevented”.

ω-conotoxin GVIA was tested, and the “Sema3A-induced conversion” value (cultured xSCINs) was “neither L-types (nimodipine) nor N-types (ω-conotoxin GVIA) prevented the conversion”, the “MAP2-IR / dendrite formation” value ([1]; in vivo) was “no significant effect” and the “tau-1-IR after local administration into the spinal cord” value [3] was “neither nimodipine (FIG. 6F and bottom panel, labeled f; FIG. 6G) nor w-conotoxin GVIA (FIG. 6G) had significant effect”.
